In patent publication US20230027620A1, “PENTAPEPTIDE AND METHODS OF USE THEREOF” (THE BOARD OF TRUSTEES OF THE UNIVERSITY OF ILLINOIS, priority 2019, published 2023):
Entries after “also recorded” stand apart in the source; their conditions may differ.

Tests used:
[1] = test system: p-ERK1/2; experiment: Immunofluorescence imaging of p-ERK1/2 in scratched HCE monolayer; assay type: cell-based, Human; details: 80 μM, 45 minutes
Description: Immunofluorescence Imaging. HCE cells were seeded in 8-well chamber slide at 9×10^4 (cells/well) seeding density, and allowed to incubate to form a confluent monolayer. Subsequently, a straight-line scratch mark was made with a sterile P10 pipette tip. The cells were then washed with media to remove cellular debris. Wounded areas were subsequently left untreated or treated with Hst5, SP1 or SP2 at 80 μM concentrations in MEM media with 0.5% FBS for 45 minutes. Cells were then fixed with 4% paraformaldehyde for 30 minutes and permeabilized with 0.1% Triton X-100 for 5 minutes. After washing with PBS, cells were incubated at room temperature for 30 minutes with 5% bovine serum albumin (BSA) and 5% normal goat serum in PBS. Cells were subsequently incubated with primary antibodies diluted in 1% BSA against p-ERK1/2 (1:200) (Cell Signaling, Danver, Mass.) at 4° C. for 16 hours. After three washings with PBS, cells were incubated with fluorescein isothiocyanate-conjugated sheep anti-rabbit IgG antibody (BD Biosciences, San Jose, Calif.) (1:500) diluted in 1% BSA at room temperature for 60 minutes. After extensive washing with PBS, the cells were then stained with 4′,6-diamidino-2-phenylindole (DAPI; (Roche, Mannheim, GE) for 2 minutes for nuclear staining. The cells were mounted in Fluoro gel with Tris buffer (Electron Microscopy Sciences, Hattfield, Pa.) and observed under a confocal microscope (Zeiss LSM 710 Confocal Microscope, Oberkochen, Germany) using a 10× objective.
The level of activation/phosphorylation of ERK with and without wounding and with and without Hst5 application were investigated to determine whether the cellular signaling pathways underpinning the pro-migratory effects of Hst5 were similar to those of Hst1 in other epithelial cell types. Wounding causes an increased in phosphorylated form of ERK1/2 (p-ERK1/2). Immunolocalization was used to determine whether Hst5 application to a scratched sheet of epithelium would affect pERK1/2 levels.

[2] = test system: Human corneal epithelial (HCE) cells; experiment: In vitro scratch assay, HCE cells; assay type: cell-based; details: compared with scrambled peptide control (SP1)
Description: Human corneal epithelial (HCE) cells were cultured in a Medium Essential Media (MEM; Gibco, Life Technologies, Carlsbad, Calif.). HeLa cells were maintained in Dulbecco's Modified Eagle's Medium (DMEM; Life Technologies, Grand Island, N.Y.). Both media were supplemented with 10% fetal bovine serum (Gibco, Life Technologies, Carlsbad, Calif.) and 1% penicillin-streptomycin (Gibco, Life Technologies, Carlsbad, Calif.). […]
In Vitro Scratch Assay. […] The wound area at each time-point was measured using Image J software (Image J 1.47v, NIH, Thornwood, Bethesda, Md.). Relative wound closure was calculated by dividing the closure of the treated wound by that of the untreated wound. […]
(§1) A cell sprouting assay using HCE cells embedded as a spot in growth factor reduced solubilized basement membrane sold under the tradename MATRIGEL® (Corning Life Sciences, Tewksbury, Mass.) was used to determine if HST5 could promote epithelial cell migration. […] Time-lapse microscopy was performed and wound areas were analyzed at different time points. […]
Wound closure rates of the three salt forms were also analyzed in accordance with the methods disclosed herein. In particular, human corneal epithelial cells were scratched using standardized scratch assays and rates of wound healing were measured after application of the acetic acid, hydrochloride and trifluoroacetate salt forms of SHRGY (SEQ ID NO:2).

[3] = test system: HCLE cells; experiment: In vitro scratch assay, HCLE cells; assay type: cell-based, Human
Description: Cell Culture. Human corneal limbal epithelial (HCLE) cells were cultured in keratinocyte-serum free medium (K-SFM; ThermoScientific, Waltham, Mass.) supplemented with 0.2 ng/mL rhEGF (ThermoScientific, Waltham, Mass.), bovine pituitary extract (ThermoScientific, Waltham, Mass.) and 1% Amphotericin B (ThermoScientific, Waltham, Mass.). Standard cell culture conditions (37° C., 5% CO2, >95% humidity) were used during routine passages. The culture medium was replaced every 48 hours after seeding.
In Vitro Scratch Assay. HCE, HCLE, HELA and MCF-7 cells were cultured in a 24-well plate at 2.5×10^5 (cells/well) seeding density, and were grown to confluence on a 24-well plate. Subsequently, a straight-line scratch mark was made with a sterile P200 pipette tip. […] The wound area at each time-point was measured using Image J software (Image J 1.47v, NIH, Thornwood, Bethesda, Md.). Relative wound closure was calculated by dividing the closure of the treated wound by that of the untreated wound. […]
as §1

Q: With DSHAKRHHGYKRKFHEKHHSHRGY [Hst5] as the sequence, how does the “pERK1/2 immunolocalization / signal intensity” value [1] read?
A: The value was “increased signal intensity of phosphorylated ERK1/2; also recorded: elevated immunolocalization of pERK1/2”.

Q: What about the “concentration of statistically significant peak effect on scratch closure” value [2] of the same sequence?
A: Its value is 80 µM.

Q: And the “rates of in vitro scratch assay closure” value ([3]; 20, 50, 80 and 100 μM, compared with untreated control)?
A: Its value is “dose-dependent increase in rates of in vitro scratch assay closure”.

Q: And the “concentration of most significant increase in scratch closure rates” value ([3]; tested at 20, 50, 80 and 100 μM)?
A: Its value is 50 µM.
